Reference: publication PMC10218905, “Improving the Enzymatic Activity and Stability of a Lytic Polysaccharide Monooxygenase” (International Journal of Molecular Sciences, 2023)

Tests used:
Experiment in all cases: spectrophotometric oxidation assay at […] nm
Format in all cases: biochemical
Conditions in all cases: 100 µM H2O2 co-substrate, copper-loaded enzyme, 100 mM sodium acetate pH 6.0, 30 °C; read-out: Km app
[1] = target: T1, BaLPMO10A (Bacillus velezensis, UniProt A7Z541, V67L, form not given)
T1 construct: gene RBAM_017540; mature enzyme with native N-terminus; N-terminal SUMO tag cleaved, C-terminal 6xHis tag; pET-20b, E. coli BL21(DE3); copper-saturated

[2] = target: T2, BaLPMO10A (Bacillus velezensis, UniProt A7Z541, V67L/E151D, form not given)
T2 construct: gene RBAM_017540; mature enzyme with native N-terminus; N-terminal SUMO tag cleaved, C-terminal 6xHis tag; pET-20b, E. coli BL21(DE3); copper-saturated

[3] = target: T3, BaLPMO10A (Bacillus velezensis, UniProt A7Z541)
T3 construct: gene RBAM_017540; mature enzyme with native N-terminus; N-terminal SUMO tag cleaved, C-terminal 6xHis tag; pET-20b, E. coli BL21(DE3); copper-saturated

[4] = target: T4, BaLPMO10A (Bacillus velezensis, UniProt A7Z541, I31V/E151D, form not given)
T4 construct: gene RBAM_017540; mature enzyme with native N-terminus; N-terminal SUMO tag cleaved, C-terminal 6xHis tag; pET-20b, E. coli BL21(DE3); copper-saturated
T4 sequence (A7Z541 entry or part of it I31V/E151D, form open): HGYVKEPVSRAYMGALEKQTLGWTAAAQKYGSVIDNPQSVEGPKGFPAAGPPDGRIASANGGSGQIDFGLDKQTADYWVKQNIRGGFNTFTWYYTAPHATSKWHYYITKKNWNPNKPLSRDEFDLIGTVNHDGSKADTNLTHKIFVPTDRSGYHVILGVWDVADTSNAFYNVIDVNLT

T2 sequence (A7Z541 entry or part of it V67L/E151D, form open): as the sequence (A7Z541 entry or part of it I31V/E151D, form open) above, with V4I, V40L counted along it
T3 sequence (A7Z541 entry or part of it): as the sequence (A7Z541 entry or part of it I31V/E151D, form open) above, with V4I, D124E counted along it
T1 sequence (A7Z541 entry or part of it V67L, form open): as the sequence (A7Z541 entry or part of it I31V/E151D, form open) above, with V4I, V40L, D124E counted along it

Km [1]: 32.5 ± 3.6 mM
Km [2]: 33.5 ± 1.6 mM
Km [3]: 41.3 ± 7.33 mM
Km [4]: 95.5 ± 9.5 mM
Compound: COc1cccc(OC)c1O [2,6-DMP, 2,6-Dimethoxyphenol]
